Where a SMILES comes first, the peptide text is derived from it. Bridges are numbered along the chain shown (N, C = ends). [ ]: non-standard residue; d: D form. The star is where a group is joined. hPhe(3-Cl-4-CF3) = N[C@@H](CCc1ccc(C(F)(F)F)c(Cl)c1)C(=O)O; NPrPhe(4-CF3) = CCCN[C@@H](Cc1ccc(C(F)(F)F)cc1)C(=O)O; NMeGly(cPent) = CN[C@H](C(=O)O)C1CCCC1; NEtLeu = CCN[C@@H](CC(C)C)C(=O)O; NMeChg = CN[C@H](C(=O)O)C1CCCCC1; NMeD = CN[C@@H](CC(=O)O)C(=O)O; NMeL = CN[C@@H](CC(C)C)C(=O)O; Morpholide = C1CN(*)CCO1; Ac5c = NC1(C(=O)O)CCCC1; Ac4c = NC1(C(=O)O)CCC1; NEtG = CCNCC(=O)O; Sar = CNCC(=O)O
Key:
[1] = system: human lung cancer strain NCI-H441; experiment: cells; conditions: NCI-H441, 96 h, read-out: NCI-H441 IC50 (nM), NCI-H441 cell proliferation, 4 days, CellTiter-Glo;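 also: cell proliferation inhibition after four days measured by CellTiter-Glo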
[2] = target: GDP-bound NRAS wild-type protein (Homo sapiens, UniProt P01111); experiment: Binding to NRAS by surface plasmon resonance (SPR), Single Cycle Kinetics; conditions: ratio of KD for GDP-bound NRAS wild-type protein to KD for KRAS, SPR
[3] = target: GDP-bound HRAS wild-type protein (Homo sapiens, UniProt P01112); experiment: Binding to HRAS by surface plasmon resonance (SPR), Single Cycle Kinetics; conditions: ratio of KD for GDP-bound HRAS wild-type protein to KD for KRAS, SPR
[4] = target: GDP-bound KRAS wild-type protein (Homo sapiens, UniProt P01116); experiment: Binding to KRAS by surface plasmon resonance (SPR), Single Cycle Kinetics; conditions: SPR, Single Cycle Kinetics, GDP-bound KRAS wild-type protein; read-out: KRAS KD
Chain of GDP-bound KRAS wild-type protein (P01116 whole entry): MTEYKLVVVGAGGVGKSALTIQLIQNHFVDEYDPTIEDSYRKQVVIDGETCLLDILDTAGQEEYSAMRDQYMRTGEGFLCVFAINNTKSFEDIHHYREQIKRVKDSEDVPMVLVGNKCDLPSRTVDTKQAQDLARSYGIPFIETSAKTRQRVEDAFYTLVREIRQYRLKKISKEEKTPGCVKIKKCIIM

Chain of GDP-bound NRAS wild-type protein (P01111 whole entry): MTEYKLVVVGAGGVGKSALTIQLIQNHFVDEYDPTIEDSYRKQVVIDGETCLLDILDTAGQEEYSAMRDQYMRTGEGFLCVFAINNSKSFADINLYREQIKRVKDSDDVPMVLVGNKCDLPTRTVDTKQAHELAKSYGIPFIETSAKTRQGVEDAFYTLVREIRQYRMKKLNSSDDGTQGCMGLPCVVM
Chain of GDP-bound HRAS wild-type protein (P01112 whole entry): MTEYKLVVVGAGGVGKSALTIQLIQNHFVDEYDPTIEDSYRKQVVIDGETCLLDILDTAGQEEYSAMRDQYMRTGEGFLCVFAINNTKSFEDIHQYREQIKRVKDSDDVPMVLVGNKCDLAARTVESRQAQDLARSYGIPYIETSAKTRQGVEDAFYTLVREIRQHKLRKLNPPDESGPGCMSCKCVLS

| SMILES | IC50 [1] | NRAS/KRAS (KD ratio) [2] | HRAS/KRAS (KD ratio) [3] | Kd [4] |
| --- | --- | --- | --- | --- |
| CCCN1C(=O)CN(C)C(=O)CNC(=O)[C@H]([C@@H](C)CC)NC(=O)[C@H](CC(C)C)N(C)C(=O)C[C@@H](C(=O)N2CCOCC2)N(C)C(=O)[C@H](C2CCCC2)N(C)C(=O)C2(CCCC2)NC(=O)[C@@H]2CCCN2C(=O)[C@H](CCc2ccc(C(F)(F)F)c(Cl)c2)NC(=O)CN(CC)C(=O)[C@@H]1Cc1ccc(C(F)(F)F)cc1 [PP1969] ([NMeL]IG[Sar][NPrPhe(4-CF3)][NEtG][hPhe(3-Cl-4-CF3)]P[Ac5c][NMeGly(cPent)][NMeD]-Morpholide; lactam N-11) | 74 nM | B (a compound having 3 or more and less than 10 is denoted as B) | C (A compound having a KD ratio of 0.1 or more and less than 3 is denoted as C) | 2.1 nM |
| CCO[C@@H]1C[C@H]2C(=O)NC3(CC(C)(C)C3)C(=O)N(C)[C@@H](C3CCCCC3)C(=O)N(C)[C@H](C(=O)N(C)C)CC(=O)N(C)[C@@H](CC)C(=O)N[C@@H]([C@@H](C)CC)C(=O)N(C)CC(=O)N(C)[C@H]3C/C=C\CCN(C3=O)[C@@H](Cc3ccc(C(F)(F)F)cc3)C(=O)N(C)CC(=O)N[C@@H](CCc3cc(F)c(C(F)(F)F)c(F)c3)C(=O)N2C1 [PP1942] | 25.7 nM | AA (a compound having 20 or more is denoted as AA) | A (a compound having 10 or more and less than 20 is denoted as A) | 0.15 nM |
| CCC[C@H]1C(=O)N[C@@H]([C@@H](C)CC)C(=O)N(C)CC(=O)N(C)[C@H]2C/C=C\CCN(C2=O)[C@@H](Cc2ccc(C(F)(F)F)cc2)C(=O)N(C)CC(=O)N[C@@H](CCc2cc(F)c(C(F)(F)F)c(F)c2)C(=O)N(C)[C@@H](COC)C(=O)NC2(CC(C)(C)C2)C(=O)N(C)[C@@H](C2CCCC2)C(=O)N(C)[C@H](C(=O)N(C)C)CC(=O)N1C [PP1936] | 12.3 nM | AA (a compound having 20 or more is denoted as AA) | A (a compound having 10 or more and less than 20 is denoted as A) | 0.4 nM |
| CCC[C@H]1C(=O)N[C@@H]([C@@H](C)CC)C(=O)N(C)CC(=O)N(C)[C@H]2C/C=C\CCN(C2=O)[C@@H](Cc2ccc(C)cc2)C(=O)N(C)CC(=O)N[C@@H](CCc2cc(F)c(C(F)(F)F)c(F)c2)C(=O)N2C[C@H](OCC)C[C@H]2C(=O)N(C)C2(CCC2)C(=O)N(C)[C@@H](C2CCCC2)C(=O)N(C)[C@H](C(=O)N(C)C)CC(=O)N1C [PP1793] | 2.4 nM | A (a compound having 10 or more and less than 20 is denoted as A) | B (a compound having 3 or more and less than 10 is denoted as B) | 0.023 nM |
| CCO[C@@H]1C[C@H]2C(=O)NC3(CCC3)C(=O)N(C)[C@@H](C3CCCC3)C(=O)N(C)[C@H](C(=O)N(C)CC)CC(=O)N(C)[C@@H](CC)C(=O)N[C@@H]([C@@H](C)CC)C(=O)N(C)CC(=O)N(C)[C@H]3C/C=C\CCN(C3=O)[C@@H](Cc3ccc(C)cc3)C(=O)N(C)CC(=O)N[C@@H](CCc3ccc(C(F)(F)F)c(OC)c3)C(=O)N2C1 [PP1869] | 36.4 nM | A (a compound having 10 or more and less than 20 is denoted as A) | A (a compound having 10 or more and less than 20 is denoted as A) | 0.13 nM |
| CCCN1C(=O)CN(C)C(=O)CN(C)C(=O)[C@H]([C@@H](C)CC)NC(=O)[C@H](CC(C)C)N(C)C(=O)C[C@@H](C(=O)N2CCOCC2)N(C)C(=O)[C@H](C2CCCCC2)N(C)C(=O)C2(CCC2)NC(=O)[C@@H]2CCCN2C(=O)[C@H](CCc2ccc(C(F)(F)F)c(Cl)c2)NC(=O)CN(C)C(=O)[C@@H]1Cc1ccc(C(F)(F)F)cc1 [PP1928] ([NMeL]I[Sar][Sar][NPrPhe(4-CF3)][Sar][hPhe(3-Cl-4-CF3)]P[Ac4c][NMeChg][NMeD]-Morpholide; lactam N-11) | 18.4 nM | B (a compound having 3 or more and less than 10 is denoted as B) | B (a compound having 3 or more and less than 10 is denoted as B) | 0.25 nM |
| CC[C@H](C)[C@@H]1NC(=O)[C@H](CC(F)F)N(C)C(=O)C[C@@H](C(=O)N(C)CC)N(C)C(=O)[C@H](C2CCCC2)N(C)C(=O)C2(CC(C)(C)C2)NC(=O)[C@@H]2C[C@H](C)CN2C(=O)[C@H](CCc2ccc(C(F)(F)F)c(Cl)c2)NC(=O)CN(C)C(=O)[C@H](Cc2ccc(C)cc2)N2CC/C=C\C[C@@H](C2=O)N(C)C(=O)CN(C)C1=O [PP1911] | 11.7 nM | A (a compound having 10 or more and less than 20 is denoted as A) | A (a compound having 10 or more and less than 20 is denoted as A) | 0.21 nM |
| CCCN1C(=O)CN(C)C(=O)CNC(=O)[C@H]([C@@H](C)CC)NC(=O)[C@H](CC(C)C)N(CC)C(=O)C[C@@H](C(=O)N2CCOCC2)N(C)C(=O)[C@H](C2CCCC2)N(C)C(=O)C2(CCCC2)NC(=O)[C@@H]2CCCN2C(=O)[C@H](CCc2ccc(C(F)(F)F)c(Cl)c2)NC(=O)CN(C)C(=O)[C@@H]1Cc1ccc(C(F)(F)F)cc1 [PP1967] ([NEtLeu]IG[Sar][NPrPhe(4-CF3)][Sar][hPhe(3-Cl-4-CF3)]P[Ac5c][NMeGly(cPent)][NMeD]-Morpholide; lactam N-11) | 10.9 nM | B (a compound having 3 or more and less than 10 is denoted as B) | B (a compound having 3 or more and less than 10 is denoted as B) | 0.36 nM |
| CCCN(C)C(=O)[C@@H]1CC(=O)N(C)[C@@H](CC(F)F)C(=O)N[C@@H]([C@@H](C)CC)C(=O)N(C)CC(=O)N(C)[C@H]2C/C=C\CCN(C2=O)[C@@H](Cc2ccc(C(F)(F)F)cc2)C(=O)N(C)CC(=O)N[C@@H](CCc2ccc(C(F)(F)F)c(OC)c2)C(=O)N2C[C@H](OCC)C[C@H]2C(=O)NC2(CCC2)C(=O)N(C)[C@@H](C2CCCC2)C(=O)N1C [PP2013] | 7.7 nM | A (a compound having 10 or more and less than 20 is denoted as A) | B (a compound having 3 or more and less than 10 is denoted as B) | 0.13 nM |
| CCO[C@@H]1C[C@H]2C(=O)NC3(CCC3)C(=O)N(C)[C@@H](C3CCCC3)C(=O)N(C)[C@H](C(=O)N(C)CC)CC(=O)N(C)[C@@H](C3CCC3)C(=O)N[C@@H]([C@@H](C)CC)C(=O)N(C)CC(=O)N(C)[C@H]3C/C=C\CCN(C3=O)[C@@H](Cc3ccc(C(F)(F)F)cc3)C(=O)N(C)CC(=O)N[C@@H](CCc3cc(F)c(C(F)(F)F)c(F)c3)C(=O)N2C1 [PP1996] | 15.5 nM | A (a compound having 10 or more and less than 20 is denoted as A) | B (a compound having 3 or more and less than 10 is denoted as B) | 0.12 nM |
| CCO[C@@H]1C[C@H]2C(=O)NC3(CC(C)(C)C3)C(=O)N(C)[C@@H](C3CCCC3)C(=O)N(C)[C@H](CC)CC(=O)N(C)[C@@H](CC3CC3)C(=O)N[C@@H]([C@@H](C)CC)C(=O)N(C)CC(=O)N(C)[C@H]3C/C=C\CCN(C3=O)[C@@H](Cc3ccc(C(F)(F)F)cc3)C(=O)N(C)CC(=O)N[C@@H](CCc3cc(F)c(C(F)(F)F)c(F)c3)C(=O)N2C1 [PP1629] | 20.7 nM | B (a compound having 3 or more and less than 10 is denoted as B) | B (a compound having 3 or more and less than 10 is denoted as B) | 0.36 nM |
| CCO[C@@H]1C[C@H]2C(=O)NC3(CC(C)(C)C3)C(=O)N(C)[C@@H](C3CCCC3)C(=O)N(C)[C@H](C(=O)N(C)CC)CC(=O)N(C)[C@@H](CC(C)C)C(=O)N[C@@H]([C@@H](C)CC)C(=O)NCC(=O)N(C)[C@H]3C/C=C\CCN(C3=O)[C@@H](Cc3ccc(C(F)(F)F)cc3)C(=O)N(C)CC(=O)N[C@@H](CCc3cc(F)c(C(F)(F)F)c(F)c3)C(=O)N2C1 [PP1771] | 6.6 nM | A (a compound having 10 or more and less than 20 is denoted as A) | A (a compound having 10 or more and less than 20 is denoted as A) | 0.097 nM |
| CCCC[C@H]1C(=O)N[C@@H]([C@@H](C)CC)C(=O)N(C)CC(=O)N(C)[C@H]2C/C=C\CCN(C2=O)[C@@H](Cc2ccc(C(F)(F)F)cc2)C(=O)N(C)CC(=O)N[C@@H](CCc2ccc(C(F)(F)F)c(Cl)c2)C(=O)N2C[C@H](OCC)C[C@H]2C(=O)NC2(CC(C)(C)C2)C(=O)N(C)[C@@H](C2CCCC2)C(=O)N(C)[C@H](C(=O)N(C)C)CC(=O)N1C [PP1750] | 3.4 nM | A (a compound having 10 or more and less than 20 is denoted as A) | B (a compound having 3 or more and less than 10 is denoted as B) | 0.069 nM |
| CC[C@H](C)[C@@H]1NC(=O)[C@H](CC)N(C)C(=O)C[C@@H](C(=O)N(C)C)N(C)C(=O)[C@H](C2CCCC2)N(C)C(=O)C2(CC(C)(C)C2)NC(=O)[C@@H]2C[C@H](C)CN2C(=O)[C@H](CCc2ccc(C(F)(F)F)c(Cl)c2)NC(=O)CN(C)C(=O)[C@H](Cc2ccc(C)cc2)N2CC/C=C\C[C@@H](C2=O)N(C)C(=O)CN(C)C1=O [PP1844] | 12.3 nM | A (a compound having 10 or more and less than 20 is denoted as A) | B (a compound having 3 or more and less than 10 is denoted as B) | 0.07 nM |

— patent US20240158446A1, “CYCLIC COMPOUND HAVING SELECTIVE INHIBITORY ACTION ON KRAS OVER HRAS AND NRAS” (CHUGAI SEIYAKU KABUSHIKI KAISHA, priority 2021, published 2024)
